Data as given in patent US12258328B2, “6-membered heteroaryl-containing aminopyridine compounds as EGFR inhibitors” (YUHAN CORPORATION, priority 2021, dated 2025).
Read-outs that look alike come from different tables or passages of the source.

Experiments:
EGFR L858R/T790M/C797S = EGFR L858R/T790M/C797S (Homo sapiens, UniProt P00533, C797S/L858R/T790M); experiment: Biochemical EGFR kinase assay (Lance Ultra TR-FRET), triple mutant L858R/T790M/C797S
Outline: (§1)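 Enzyme reactions lasted 1 hour at room temperature with test compounds between 0.003 and 10 μM, followed by 10 mM EDTA quench.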

EGFR L858R/C797S = EGFR L858R/C797S (Homo sapiens, UniProt P00533, C797S/L858R); experiment: Biochemical EGFR kinase assay (Lance Ultra TR-FRET), double mutant L858R/C797S
Outline: as §1

EGFR del19/C797S = EGFR del19/C797S (Homo sapiens, UniProt P00533, C797S/DEL746-750); experiment: Biochemical EGFR kinase assay (Lance Ultra TR-FRET), double mutant del19/C797S
EGFR del19/C797S, sequence (P00533 with tags, fused parts or gaps DEL746-750/C797S): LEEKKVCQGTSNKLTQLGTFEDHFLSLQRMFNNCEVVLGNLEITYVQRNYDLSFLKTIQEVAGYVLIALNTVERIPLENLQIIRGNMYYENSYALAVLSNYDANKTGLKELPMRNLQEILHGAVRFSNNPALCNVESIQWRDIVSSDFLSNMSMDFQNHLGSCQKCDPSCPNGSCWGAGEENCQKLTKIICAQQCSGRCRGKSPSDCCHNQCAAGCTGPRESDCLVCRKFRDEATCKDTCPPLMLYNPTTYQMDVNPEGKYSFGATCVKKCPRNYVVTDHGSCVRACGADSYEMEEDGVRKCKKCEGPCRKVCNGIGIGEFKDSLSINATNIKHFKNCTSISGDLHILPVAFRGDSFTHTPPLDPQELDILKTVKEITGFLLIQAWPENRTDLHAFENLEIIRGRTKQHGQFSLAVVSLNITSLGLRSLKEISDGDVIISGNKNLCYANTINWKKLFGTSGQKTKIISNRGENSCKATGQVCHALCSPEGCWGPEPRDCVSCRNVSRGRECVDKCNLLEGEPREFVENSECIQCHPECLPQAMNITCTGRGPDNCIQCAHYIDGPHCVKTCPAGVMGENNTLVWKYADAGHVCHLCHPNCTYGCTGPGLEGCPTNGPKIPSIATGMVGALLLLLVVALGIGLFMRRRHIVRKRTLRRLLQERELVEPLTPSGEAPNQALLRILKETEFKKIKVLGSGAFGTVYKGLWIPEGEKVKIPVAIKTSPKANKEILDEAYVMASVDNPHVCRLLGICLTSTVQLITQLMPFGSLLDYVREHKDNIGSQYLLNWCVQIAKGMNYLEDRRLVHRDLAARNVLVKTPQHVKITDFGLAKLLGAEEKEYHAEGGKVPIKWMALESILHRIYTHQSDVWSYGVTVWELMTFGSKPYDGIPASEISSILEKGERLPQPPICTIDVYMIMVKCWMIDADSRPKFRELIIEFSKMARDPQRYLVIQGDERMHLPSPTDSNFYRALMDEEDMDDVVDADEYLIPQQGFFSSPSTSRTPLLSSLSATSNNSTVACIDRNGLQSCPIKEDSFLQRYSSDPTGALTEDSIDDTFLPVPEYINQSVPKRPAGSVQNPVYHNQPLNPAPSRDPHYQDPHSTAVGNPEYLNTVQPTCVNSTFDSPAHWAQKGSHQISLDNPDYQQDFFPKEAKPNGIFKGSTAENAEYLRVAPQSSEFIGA
Outline: as §1

EGFR wildtype = EGFR wildtype (Homo sapiens, UniProt P00533); experiment: Biochemical EGFR kinase assay (Lance Ultra TR-FRET), wildtype
EGFR wildtype, sequence (P00533 25-1210): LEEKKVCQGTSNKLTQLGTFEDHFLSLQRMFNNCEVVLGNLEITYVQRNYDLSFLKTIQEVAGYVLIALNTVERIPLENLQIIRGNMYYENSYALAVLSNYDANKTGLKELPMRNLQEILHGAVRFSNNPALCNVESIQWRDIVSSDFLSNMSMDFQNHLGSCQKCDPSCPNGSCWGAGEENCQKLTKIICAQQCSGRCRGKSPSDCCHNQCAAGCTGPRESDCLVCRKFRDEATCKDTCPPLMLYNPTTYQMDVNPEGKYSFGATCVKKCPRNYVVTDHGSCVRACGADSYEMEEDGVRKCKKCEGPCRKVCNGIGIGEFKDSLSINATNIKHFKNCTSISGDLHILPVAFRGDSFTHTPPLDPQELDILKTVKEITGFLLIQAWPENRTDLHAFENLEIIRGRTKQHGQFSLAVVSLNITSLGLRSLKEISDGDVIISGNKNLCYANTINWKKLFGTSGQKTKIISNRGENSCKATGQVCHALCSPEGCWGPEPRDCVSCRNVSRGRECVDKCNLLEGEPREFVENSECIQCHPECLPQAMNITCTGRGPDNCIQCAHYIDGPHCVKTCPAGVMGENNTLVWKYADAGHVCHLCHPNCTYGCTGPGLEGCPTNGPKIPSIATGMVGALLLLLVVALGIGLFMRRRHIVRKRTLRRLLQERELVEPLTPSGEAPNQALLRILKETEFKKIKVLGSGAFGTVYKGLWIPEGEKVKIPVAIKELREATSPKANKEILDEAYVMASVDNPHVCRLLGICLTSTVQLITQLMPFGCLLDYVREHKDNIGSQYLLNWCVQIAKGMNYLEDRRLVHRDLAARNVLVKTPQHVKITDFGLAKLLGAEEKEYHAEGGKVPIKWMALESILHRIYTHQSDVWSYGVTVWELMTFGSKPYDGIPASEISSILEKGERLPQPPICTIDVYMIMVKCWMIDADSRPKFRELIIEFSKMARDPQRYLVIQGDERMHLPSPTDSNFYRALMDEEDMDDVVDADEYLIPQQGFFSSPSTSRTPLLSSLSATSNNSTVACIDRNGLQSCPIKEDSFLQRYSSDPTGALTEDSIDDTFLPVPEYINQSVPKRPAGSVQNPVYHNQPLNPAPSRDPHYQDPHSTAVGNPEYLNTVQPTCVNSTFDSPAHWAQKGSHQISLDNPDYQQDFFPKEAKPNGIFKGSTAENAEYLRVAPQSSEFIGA
Outline: as §1

EGFR del19/T790M/C797S = EGFR del19/T790M/C797S (Homo sapiens, UniProt P00533, C797S/DEL746-750/T790M); experiment: Biochemical EGFR kinase assay (Lance Ultra TR-FRET), triple mutant del19/T790M/C797S
EGFR del19/T790M/C797S, sequence (P00533 with tags, fused parts or gaps DEL746-750/T790M/C797S): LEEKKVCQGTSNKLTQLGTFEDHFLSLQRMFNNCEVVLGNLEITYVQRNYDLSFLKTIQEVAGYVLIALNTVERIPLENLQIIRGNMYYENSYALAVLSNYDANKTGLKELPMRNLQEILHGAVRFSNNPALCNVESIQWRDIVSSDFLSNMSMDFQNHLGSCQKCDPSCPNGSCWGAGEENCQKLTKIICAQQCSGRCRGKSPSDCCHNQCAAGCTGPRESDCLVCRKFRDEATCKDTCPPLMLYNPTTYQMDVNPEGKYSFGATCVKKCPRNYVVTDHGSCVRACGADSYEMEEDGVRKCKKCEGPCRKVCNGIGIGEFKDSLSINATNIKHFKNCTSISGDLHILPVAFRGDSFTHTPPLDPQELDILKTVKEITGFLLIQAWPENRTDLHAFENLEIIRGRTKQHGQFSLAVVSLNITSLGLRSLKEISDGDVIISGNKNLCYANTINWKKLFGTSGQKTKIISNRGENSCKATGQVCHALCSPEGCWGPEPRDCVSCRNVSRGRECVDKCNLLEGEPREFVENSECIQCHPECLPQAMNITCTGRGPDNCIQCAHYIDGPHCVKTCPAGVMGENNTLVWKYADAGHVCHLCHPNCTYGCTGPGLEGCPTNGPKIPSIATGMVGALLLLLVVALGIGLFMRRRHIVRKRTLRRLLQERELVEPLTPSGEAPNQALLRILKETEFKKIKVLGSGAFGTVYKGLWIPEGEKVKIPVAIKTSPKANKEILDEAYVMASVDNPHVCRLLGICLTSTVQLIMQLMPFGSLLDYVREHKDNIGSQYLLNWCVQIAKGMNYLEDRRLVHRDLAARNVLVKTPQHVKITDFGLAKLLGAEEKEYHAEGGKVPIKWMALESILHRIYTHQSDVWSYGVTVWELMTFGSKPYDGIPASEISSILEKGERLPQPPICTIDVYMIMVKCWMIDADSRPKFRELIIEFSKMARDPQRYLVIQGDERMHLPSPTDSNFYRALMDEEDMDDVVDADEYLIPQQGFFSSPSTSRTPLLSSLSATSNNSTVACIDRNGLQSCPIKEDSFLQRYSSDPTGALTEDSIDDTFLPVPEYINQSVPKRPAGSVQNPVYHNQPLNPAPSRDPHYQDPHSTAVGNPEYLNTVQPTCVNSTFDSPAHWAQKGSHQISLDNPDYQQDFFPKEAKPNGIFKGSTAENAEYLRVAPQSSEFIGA
Outline: as §1

[1] = IC50 L858R/T790M/C797S, 100 μM ATP
[2] = IC50 del19/T790M/C797S, 100 μM ATP
[3] = ATP at Km, read-out: IC50 L858R/T790M/C797S, Km ATP
[4] = ATP at Km, read-out: IC50 L858R/C797S, Km ATP
[5] = ATP at Km, read-out: IC50 del19/C797S, Km ATP
[6] = ATP at Km, read-out: IC50 WT, Km ATP
[7] = ATP at Km, read-out: IC50 del19/T790M/C797S, Km ATP

EGFR L858R/T790M/C797S, sequence (P00533 25-1210 T790M/C797S/L858R): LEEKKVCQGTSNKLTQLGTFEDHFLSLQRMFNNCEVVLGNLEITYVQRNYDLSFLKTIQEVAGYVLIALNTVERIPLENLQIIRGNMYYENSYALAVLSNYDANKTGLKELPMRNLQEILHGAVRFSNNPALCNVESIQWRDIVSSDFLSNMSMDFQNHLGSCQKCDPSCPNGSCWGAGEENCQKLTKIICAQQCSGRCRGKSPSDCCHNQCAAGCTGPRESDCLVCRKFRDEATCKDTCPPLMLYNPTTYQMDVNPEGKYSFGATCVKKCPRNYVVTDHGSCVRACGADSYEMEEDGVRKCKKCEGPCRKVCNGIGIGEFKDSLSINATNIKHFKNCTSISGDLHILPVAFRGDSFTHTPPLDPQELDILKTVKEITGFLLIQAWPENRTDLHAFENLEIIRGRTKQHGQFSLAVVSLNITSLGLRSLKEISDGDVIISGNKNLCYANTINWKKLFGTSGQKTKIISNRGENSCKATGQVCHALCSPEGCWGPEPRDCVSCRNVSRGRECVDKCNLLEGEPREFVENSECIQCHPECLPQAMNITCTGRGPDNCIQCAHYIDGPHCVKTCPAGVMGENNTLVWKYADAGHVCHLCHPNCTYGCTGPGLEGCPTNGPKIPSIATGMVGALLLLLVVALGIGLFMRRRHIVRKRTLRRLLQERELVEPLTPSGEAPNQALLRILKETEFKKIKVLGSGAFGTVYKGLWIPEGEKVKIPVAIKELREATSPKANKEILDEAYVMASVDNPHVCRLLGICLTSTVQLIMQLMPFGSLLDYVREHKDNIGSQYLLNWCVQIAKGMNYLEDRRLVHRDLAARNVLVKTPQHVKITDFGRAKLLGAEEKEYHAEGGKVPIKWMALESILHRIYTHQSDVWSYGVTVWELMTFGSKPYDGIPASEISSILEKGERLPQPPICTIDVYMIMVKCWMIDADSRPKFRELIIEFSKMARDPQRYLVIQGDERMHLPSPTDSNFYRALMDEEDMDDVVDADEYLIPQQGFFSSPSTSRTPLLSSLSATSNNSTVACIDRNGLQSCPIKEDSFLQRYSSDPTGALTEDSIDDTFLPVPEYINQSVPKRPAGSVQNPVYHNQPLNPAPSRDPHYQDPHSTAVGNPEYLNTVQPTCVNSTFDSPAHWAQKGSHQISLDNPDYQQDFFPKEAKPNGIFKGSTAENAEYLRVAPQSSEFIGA

IC50 (EGFR L858R/T790M/C797S; [1]) [nM]	IC50 (EGFR L858R/C797S; IC50 L858R/C797S, 100 μM ATP) [nM]	IC50 (EGFR del19/C797S; IC50 del19/C797S, 100 μM ATP) [nM]	IC50 (EGFR wildtype; IC50 WT, 100 μM ATP) [nM]	IC50 (EGFR del19/T790M/C797S; [2]) [nM]	IC50 (EGFR L858R/T790M/C797S; [3]) [nM]	IC50 (EGFR L858R/C797S; [4]) [nM]	IC50 (EGFR del19/C797S; [5]) [nM]	IC50 (EGFR wildtype; [6]) [nM]	IC50 (EGFR del19/T790M/C797S; [7]) [nM]	SMILES
0.5	7.8	2	6510	0.6						O=S(=O)(C1CC1)n1cc(-c2nccc(Nc3cc(N[C@H]4CC[C@@H](CO)CC4)c(-c4ccnc(N[C@H]5CC[C@@H](CO)CC5)n4)cn3)n2)cn1 [Example 192, ((1s,4s)-4-((4-(6-((2-(1-(Cyclopropylsulfonyl)-1H-pyrazol-4-yl)pyrimidin-4-yl)amino)-4-(((1s,4s)-4-(hydroxymethyl)cyclohexyl)amino)pyridin-3-yl)pyrimidin-2-yl)amino)cyclohexyl)methanol]
3.8	187	23.5	> 10000	3						CC(C)(O)[C@H]1CC[C@@H](Nc2nccc(-c3cnc(Nc4ccnc(-c5cnn(S(=O)(=O)C6CC6)c5)n4)cc3N[C@H]3CC[C@@H](C(C)(C)O)CC3)n2)CC1 [Example 193, 2-((1s,4s)-4-((4-(6-((2-(1-(Cyclopropylsulfonyl)-1H-pyrazol-4-yl)pyrimidin-4-yl)amino)-4-(((1s,4s)-4-(2-hydroxypropan-2-yl)cyclohexyl)amino)pyridin-3-yl)pyrimidin-2-yl)amino)cyclohexyl)propan-2-ol]
2.2	43.7	16.9	> 10000	3.4	0.6	3.9	5.5	36.7	2.5	C[C@]1(O)CC[C@@H](Nc2cc(Nc3ccnc(-c4cnn(S(=O)(=O)C5CC5)c4)n3)ncc2-c2ccc(OC(F)(F)F)cn2)CC1 [Example 194, (1s,4s)-4-((6′-((2-(1-(Cyclopropylsulfonyl)-1H-pyrazol-4-yl)pyrimidin-4-yl)amino)-5-(trifluoromethoxy)-[2,3′-bipyridin]-4′-yl)amino)-1-methylcyclohexan-1-ol]
2.5	36.9	16.3	> 10000	3.6	1	3.6	6.6	25	3.3	O=S(=O)(C1CC1)n1cc(-c2nccc(Nc3cc(N[C@H]4CC[C@@H](CO)CC4)c(-c4ccc(OC(F)(F)F)cn4)cn3)n2)cn1 [Example 195, ((1s,4s)-4-((6′-((2-(1-(Cyclopropylsulfonyl)-1H-pyrazol-4-yl)pyrimidin-4-yl)amino)-5-(trifluoromethoxy)-[2,3′-bipyridin]-4′-yl)amino)cyclohexyl)methanol]
9.5	> 10000	135	> 10000	14.7						CC(C)(O)[C@H]1CC[C@@H](Nc2cc(Nc3ccnc(-c4cnn(S(=O)(=O)C5CC5)c4)n3)ncc2-c2ccc(OC(F)(F)F)cn2)CC1 [Example 196, 2-((1s,4s)-4-((6′-((2-(1-(Cyclopropylsulfonyl)-1H-pyrazol-4-yl)pyrimidin-4-yl)amino)-5-(trifluoromethoxy)-[2,3′-bipyridin]-4′-yl)amino)cyclohexyl)propan-2-ol]
0.5	5.3	1.1	1240	0.5	0.3	0.3	1	3	0.6	CN(C)C[C@H]1CC[C@@H](Nc2cc(Nc3ccnc(-c4cnn(S(=O)(=O)C5CC5)c4)n3)ncc2-c2ccc(OC(F)(F)F)cn2)CC1 [Example 197, N^6′-(2-(1-(Cyclopropylsulfonyl)-1H-pyrazol-4-yl)pyrimidin-4-yl)-N^4′-((1s,4s)-4-((dimethylamino)methyl)cyclohexyl)-5-(trifluoromethoxy)-[2,3′-bipyridine]-4′,6′-diamine]
0.4	2.9	2.9	> 10000	0.8	0.2	0.8	0.7	3.7	0.5	CC1(O)CCC(Nc2cc(Nc3ccnc(-c4cnn(S(=O)(=O)C5CC5)c4)n3)ncc2-c2cc(S(C)(=O)=O)ccn2)CC1 (centres unmarked) [Example 198, (1s,4s)-4-((6′-((2-(1-(Cyclopropylsulfonyl)-1H-pyrazol-4-yl)pyrimidin-4-yl)amino)-4-(methylsulfonyl)-[2,3′-bipyridin]-4′-yl)amino)-1-methylcyclohexan-1-ol]
0.3	0.4	0.3	137	0.7	0.1	0.04	0.1	0.3	0.4	CN1CCN(C(=O)c2ccc(-c3cnc(Nc4ccnc(-c5cnn(S(=O)(=O)C6CC6)c5)n4)cc3N[C@H]3CC[C@@](C)(O)CC3)nc2)CC1 [Example 199, (6′-((2-(1-(Cyclopropylsulfonyl)-1H-pyrazol-4-yl)pyrimidin-4-yl)amino)-4′-(((1s,4s)-4-hydroxy-4-methylcyclohexyl)amino)-[2,3′-bipyridin]-5-yl)(4-methylpiperazin-1-yl)methanone]
0.2	0.6	0.3	134	0.2	0.1	0.2	0.3	0.6	0.1	O=C(c1ccc(-c2cnc(Nc3ccnc(-c4cnn(S(=O)(=O)C5CC5)c4)n3)cc2N[C@H]2CC[C@@H](CO)CC2)nc1)N1CCOCC1 [Example 200, (6′-((2-(1-(Cyclopropylsulfonyl)-1H-pyrazol-4-yl)pyrimidin-4-yl)amino)-4′-(((1s,4s)-4-(hydroxymethyl)cyclohexyl)amino)-[2,3′-bipyridin]-5-yl)(morpholino)methanone]
0.4	1.8	0.6	1040	0.4	0.1	0.5	0.5	2.2	0.3	CC(C)(O)[C@H]1CC[C@@H](Nc2cc(Nc3ccnc(-c4cnn(S(=O)(=O)C5CC5)c4)n3)ncc2-c2ccc(C(=O)N3CCOCC3)cn2)CC1 [Example 201, (6′-((2-(1-(Cyclopropylsulfonyl)-1H-pyrazol-4-yl)pyrimidin-4-yl)amino)-4′-(((1s,4s)-4-(2-hydroxypropan-2-yl)cyclohexyl)amino)-[2,3′-bipyridin]-5-yl)(morpholino)methanone]
0.1	0.3	0.2	94.2	0.3	0.1	0.03	0.1	0.2	0.2	CN1CCN(C(=O)c2ccc(-c3cnc(Nc4ccnc(-c5cnn(S(=O)(=O)C6CC6)c5)n4)cc3N[C@H]3CC[C@@H](CO)CC3)nc2)CC1 [Example 202, (6′-((2-(1-(Cyclopropylsulfonyl)-1H-pyrazol-4-yl)pyrimidin-4-yl)amino)-4′-(((1s,4s)-4-(hydroxymethyl)cyclohexyl)amino)-[2,3′-bipyridin]-5-yl)(4-methylpiperazin-1-yl)methanone]
0.3	0.8	0.3	395	0.7	0.2	0.1	0.1	0.3	0.4	CN1CCN(C(=O)c2ccc(-c3cnc(Nc4ccnc(-c5cnn(S(=O)(=O)C6CC6)c5)n4)cc3N[C@H]3CC[C@@H](C(C)(C)O)CC3)nc2)CC1 [Example 203, (6′-((2-(1-(Cyclopropylsulfonyl)-1H-pyrazol-4-yl)pyrimidin-4-yl)amino)-4′-(((1s,4s)-4-(2-hydroxypropan-2-yl)cyclohexyl)amino)-[2,3′-bipyridin]-5-yl)(4-methylpiperazin-1-yl)methanone]
0.1	1	0.2	124	0.1	0.1	0.1	0.2	0.4	0.1	CN1CCN(C(=O)c2ccc(-c3cnc(Nc4ccnc(-c5cnn(S(=O)(=O)C6CC6)c5)n4)cc3N[C@H]3CC[C@@H](CN(C)C)CC3)nc2)CC1 [Example 204, (6′-((2-(1-(Cyclopropylsulfonyl)-1H-pyrazol-4-yl)pyrimidin-4-yl)amino)-4′-(((1s,4s)-4-((dimethylamino)methyl)cyclohexyl)amino)-[2,3′-bipyridin]-5-yl)(4-methylpiperazin-1-yl)methanone]
0.2	3.5	0.6	1440	0.7	0.2	0.4	0.7	2	0.3	C[C@]1(O)CC[C@@H](Nc2cc(Nc3ccnc(-c4cnn(S(=O)(=O)C5CC5)c4)n3)ncc2-c2ccc(OCCO)cn2)CC1 [Example 205, (1s,4s)-4-((6′-((2-(1-(Cyclopropylsulfonyl)-1H-pyrazol-4-yl)pyrimidin-4-yl)amino)-5-(2-hydroxyethoxy)-[2,3′-bipyridin]-4′-yl)amino)-1-methylcyclohexan-1-ol]
